52 molecules from patent US20240425496A1, “AZETIDINYL PYRIMIDINES AND USES THEREOF” (Aerie Pharmaceuticals, Inc., priority 2021, published 2024) can be followed below.

For orientation: IC50 means the midpoint of a concentration-inhibition curve.

In assay [1] the target is TYK2 (Homo sapiens (Human), UniProt P29597). In words: JAK kinase assay (KINASE-GLO luminescent), TYK2 enzyme. The conditions noted are these: TYK2 enzyme 10 nM, Abl peptide substrate. In kind it is biochemical. In outline:
(§1)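 Kinase-Glo luminescence measures ATP remaining after 75 min at room temperature; ATP 2 μM in 4× stock. 11-point 1:5 dilutions, 2.5% DMSO final. Percent of DMSO control per concentration, IC50 by 4-parameter logistic fit.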
A general note: Kinase-Glo reads ATP consumption through a luciferase reaction.

Assay [2] deals with JAK1 (Homo sapiens (Human), UniProt P23458). Nature of the assay: JAK kinase assay (KINASE-GLO luminescent), JAK1 enzyme. The conditions noted are these: JAK1 enzyme 10 nM, Abl peptide substrate. The assay is classed as biochemical. In outline:
as §1

Sequence of TYK2 (P29597 whole entry, species assumed): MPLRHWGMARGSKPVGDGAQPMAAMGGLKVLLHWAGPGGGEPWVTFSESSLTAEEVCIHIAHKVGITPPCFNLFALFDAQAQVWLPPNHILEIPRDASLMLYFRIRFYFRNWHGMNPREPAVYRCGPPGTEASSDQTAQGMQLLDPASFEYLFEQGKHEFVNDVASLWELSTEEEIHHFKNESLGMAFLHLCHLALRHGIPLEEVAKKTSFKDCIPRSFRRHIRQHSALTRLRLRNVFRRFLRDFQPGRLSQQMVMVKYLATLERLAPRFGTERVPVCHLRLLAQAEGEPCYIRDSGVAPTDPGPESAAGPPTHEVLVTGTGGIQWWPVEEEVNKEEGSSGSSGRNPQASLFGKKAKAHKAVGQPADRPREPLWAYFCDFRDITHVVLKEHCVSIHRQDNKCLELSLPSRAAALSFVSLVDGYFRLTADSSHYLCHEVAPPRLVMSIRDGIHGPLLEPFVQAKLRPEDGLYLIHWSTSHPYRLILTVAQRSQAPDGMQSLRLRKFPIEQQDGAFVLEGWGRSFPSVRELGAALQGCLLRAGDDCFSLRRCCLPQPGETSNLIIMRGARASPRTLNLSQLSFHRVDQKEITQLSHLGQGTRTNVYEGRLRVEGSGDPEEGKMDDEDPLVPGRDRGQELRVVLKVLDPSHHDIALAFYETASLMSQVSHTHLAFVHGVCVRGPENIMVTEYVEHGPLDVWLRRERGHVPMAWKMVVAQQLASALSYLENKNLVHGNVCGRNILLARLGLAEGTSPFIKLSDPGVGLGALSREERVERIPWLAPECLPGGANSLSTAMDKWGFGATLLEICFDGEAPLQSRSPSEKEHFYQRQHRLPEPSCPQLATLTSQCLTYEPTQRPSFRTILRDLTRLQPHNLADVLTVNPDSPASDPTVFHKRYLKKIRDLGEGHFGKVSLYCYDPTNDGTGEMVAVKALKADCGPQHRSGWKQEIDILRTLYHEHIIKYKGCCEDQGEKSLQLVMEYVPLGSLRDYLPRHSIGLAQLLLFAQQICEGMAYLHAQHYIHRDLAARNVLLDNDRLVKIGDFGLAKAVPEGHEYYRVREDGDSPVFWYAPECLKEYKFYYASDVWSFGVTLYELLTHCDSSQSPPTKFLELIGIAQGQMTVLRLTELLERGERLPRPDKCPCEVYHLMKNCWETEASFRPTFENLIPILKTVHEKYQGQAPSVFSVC
Sequence of JAK1 (P23458 whole entry, species assumed): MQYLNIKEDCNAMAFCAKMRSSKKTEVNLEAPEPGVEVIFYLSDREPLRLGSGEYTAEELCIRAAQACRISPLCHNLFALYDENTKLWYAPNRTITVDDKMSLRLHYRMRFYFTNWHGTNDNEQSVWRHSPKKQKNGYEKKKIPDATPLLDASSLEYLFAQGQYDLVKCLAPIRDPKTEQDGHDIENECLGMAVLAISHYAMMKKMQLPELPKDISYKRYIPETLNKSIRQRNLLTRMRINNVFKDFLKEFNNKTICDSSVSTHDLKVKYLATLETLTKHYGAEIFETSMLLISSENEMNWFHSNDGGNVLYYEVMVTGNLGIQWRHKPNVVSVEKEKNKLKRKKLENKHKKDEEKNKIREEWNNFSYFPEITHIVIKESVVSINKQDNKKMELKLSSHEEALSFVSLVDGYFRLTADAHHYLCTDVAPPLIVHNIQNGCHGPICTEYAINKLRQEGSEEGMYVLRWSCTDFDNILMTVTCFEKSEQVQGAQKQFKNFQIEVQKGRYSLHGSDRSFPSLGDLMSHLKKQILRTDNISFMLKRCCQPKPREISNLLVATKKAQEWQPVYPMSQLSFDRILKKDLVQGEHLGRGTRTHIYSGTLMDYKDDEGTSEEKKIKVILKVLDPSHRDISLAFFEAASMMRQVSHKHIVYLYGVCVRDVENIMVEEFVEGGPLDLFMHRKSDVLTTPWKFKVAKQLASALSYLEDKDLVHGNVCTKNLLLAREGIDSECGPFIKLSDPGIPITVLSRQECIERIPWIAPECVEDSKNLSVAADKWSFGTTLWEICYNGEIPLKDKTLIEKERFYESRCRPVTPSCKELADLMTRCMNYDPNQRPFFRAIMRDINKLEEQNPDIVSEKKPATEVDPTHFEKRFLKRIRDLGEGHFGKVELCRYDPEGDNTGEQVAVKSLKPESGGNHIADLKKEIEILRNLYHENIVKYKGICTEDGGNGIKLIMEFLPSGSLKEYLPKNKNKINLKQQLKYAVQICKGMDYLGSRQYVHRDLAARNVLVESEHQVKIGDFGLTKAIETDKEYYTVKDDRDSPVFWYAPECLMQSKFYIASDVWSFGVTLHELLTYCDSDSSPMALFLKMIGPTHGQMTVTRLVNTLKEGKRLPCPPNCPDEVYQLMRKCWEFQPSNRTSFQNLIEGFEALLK

`Cc1cnc(Nc2cnn(C)c2)nc1N1CC(O)(CC2CC2)C1` [E175-B]: the IC50 in assay [1] and in assay [2] was under 200 nM throughout.
In the case of `Cc1cnc(Nc2cnn(C3CC3)c2)nc1N1CC(CC#N)(N2CCN3C[C@H](F)C[C@H]3C2)C1` [E175-C], the IC50 in assay [1] and in assay [2] was under 10 nM in each case.
For `COCCN1CCN(C2(CC#N)CN(c3nc(Nc4cnn(CCOC)c4)ncc3C)C2)CC1` [E175-D], the IC50 in assay [1] and in assay [2] was under 120 nM throughout.
For `COCCN1CCN(C2(CC#N)CN(c3nc(Nc4cnn(CCOC)c4)ncc3C)C2)CC1` [E175-E], the IC50 in assay [1] and in assay [2] was under 200 nM in each case.
As for `Cc1cnc(Nc2cnn(C)c2)nc1N1CC(CC#N)(N2CCN3C[C@H](C)C[C@H]3C2)C1` [E175a], the IC50 in assay [1] and in assay [2] was under 50 nM throughout.
For `Cc1cnc(Nc2ccc(N3CCN(C)CC3)cc2)nc1N1CC(CC#N)(N(C)C2CC2)C1` [E213], the IC50 in assay [1] is under 10 nM; in assay [2] it was under 50 nM.
The like results for `Cc1cnc(Nc2ccc3c(c2)CN(C)C3)nc1N1CC(CC(F)F)(C2CC2)C1` [E216-A] were, in that order, under 10 nM and under 10 nM.
The corresponding values for `Cc1cnc(Nc2ccc(S(C)(=O)=O)cc2)nc1N1CC(CC(F)F)(C2CC2)C1` [E216-B] are under 10 nM and under 10 nM.
The corresponding values for `Cc1cnc(Nc2ccc3c(c2)CN(C)C3)nc1N1CC(CC#N)(N(C)C2CC2)C1` [E216-C] are under 10 nM and under 10 nM.
Take `Cc1cnc(Nc2ccc3c(c2)CN(C)C3)nc1N1CC(CC#N)(N2CCC(F)CC2)C1` [E216-E]: the concentration for half-maximal inhibition (IC50) in assay [1] and in assay [2] was under 10 nM throughout.
Regarding `Cc1cnc(Nc2ccccc2)nc1N1CC(CC#N)(N2CCN3CCCC[C@H]3C2)C1` [E216-F], the IC50 in assay [1] was under 10 nM; in assay [2] it was under 20 nM.
Take `Cc1cnc(Nc2ccc3c(c2)CN(C)C3)nc1N1CC(CC#N)(N2CCC3(CC2)COC3)C1` [E216-G]: the IC50 in assay [1] and in assay [2] was under 10 nM in each case.
In the case of `Cc1cnc(Nc2ccc(N3CCOCC3)c(F)c2)nc1N1CC(CCC#N)C1` [E216-K], the IC50 in assay [1] was under 10 nM; in assay [2] it was under 50 nM.
Turning to `Cc1cnc(Nc2ccc(C3COC3)cc2)nc1N1CC(CC#N)(N2CCN(C)CC2)C1` [E216-L], the IC50 in assay [1] is under 20 nM; in assay [2] it was under 50 nM.
The corresponding values for `Cc1cnc(Nc2ccccc2)nc1N1CC(CC#N)(N2CCN(C)CC2)C1` [E216-N] are under 30 nM and under 70 nM.
The corresponding values for `Cc1cnc(Nc2ccc3c(c2)B(O)OC3)nc1N1CC(CC#N)(N2CCN3C[C@H](F)C[C@H]3C2)C1` [E216-O] are under 30 nM and under 120 nM.
The like results for `Cc1cnc(Nc2ccc(N3CCOCC3)nc2)nc1N1CC(CCC#N)C1` [E216-S] were, in that order, under 100 nM and under 100 nM.
On to `Cc1cnc(Nc2cccnc2)nc1N1CC(CC#N)(N2CCN3CCCC[C@H]3C2)C1` [E216-T], for which the IC50 in assay [1] and in assay [2] was under 50 nM each time.
In the case of `Cc1cnc(Nc2ccccc2)nc1N1CC(CC#N)(N2CCN(C)CC2)C1` [E216-V], the IC50 in assay [1] was under 50 nM; in assay [2], under 100 nM.
The like results for `Cc1cnc(Nc2ccc3c(c2)CN(C)C3)nc1N1CC(CC#N)(N2CCN3C[C@H](F)C[C@H]3C2)C1` [E216] were, in that order, under 10 nM and under 10 nM.
The like results for `Cc1cnc(Nc2cnn(C)c2)nc1C1CC(C)(NC(=O)[C@@H]2CC2(F)F)C1` (some centres unmarked) [E279] were, in that order, under 10 nM and under 5 nM.
The corresponding values for `Cc1cc(Nc2ncc(C)c(N3CC(C)(CNC(=O)C4CN(C)C4)C3)n2)sn1` [E280] are under 400 nM and under 400 nM.
With `Cc1cc(Nc2ncc(C)c(N3CC(CC#N)(NC(=O)Cc4cccnc4)C3)n2)sn1` [E281], the IC50 was under 50 nM in assay [1] and under 100 nM in assay [2].
As for `Cc1cc(Nc2ncc(C)c(N3CC(C)(CNC(=O)C4CN(C(=O)OC(C)(C)C)CC4(F)F)C3)n2)sn1` (centres unmarked) [E283], the IC50 in assay [1] and in assay [2] was under 100 nM each time.
For the molecule `Cc1cc(Nc2ncc(C)c(N3CC(C)(CNC(=O)C4CCN(C(=O)OC(C)(C)C)CC4(F)F)C3)n2)sn1` (centres unmarked) [E284], the figures for the IC50 in assay [1] and in assay [2] were under 200 nM and under 100 nM, respectively.
The like results for `Cc1cc(Nc2ncc(C)c(N3CC(C)(CNC(=O)C4CCNCC4(F)F)C3)n2)sn1` (centres unmarked) [E285] were, in that order, under 150 nM and under 100 nM.
Regarding `Cc1cc(Nc2ncc(C)c(N3CC(C)(CNC(=O)C4CNCC4(F)F)C3)n2)sn1` (centres unmarked) [E286], the IC50 in assay [1] and in assay [2] was under 50 nM throughout.
On to `COc1ccc(CNC2(CC#N)CN(c3nc(Nc4cc(C)ns4)ncc3C)C2)cc1` [E288, 2-(3-((4-methoxybenzyl)amino)-1-(5-methyl-2-((3-methylisothiazol-5-yl)amino)pyrimidin-4-yl)azetidin-3-yl)acetonitrile], for which the IC50 in assay [1] and in assay [2] was under 50 nM throughout.
In the case of `Cc1cc(Nc2ncc(C)c(N3CC(N)(CC#N)C3)n2)sn1` [E289, 2-(3-amino-1-(5-methyl-2-((3-methylisothiazol-5-yl)amino)pyrimidin-4-yl)azetidin-3-yl)acetonitrile], the IC50 was under 100 nM in assay [1] and under 150 nM in assay [2].
The corresponding values for `Cc1cc(Nc2ncc(C)c(N3CC(CC#N)(NC(=O)[C@@H]4CC4(F)F)C3)n2)sn1` [E290, (S)—N-(3-(cyanomethyl)-1-(5-methyl-2-((3-methylisothiazol-5-yl)amino)pyrimidin-4-yl)azetidin-3-yl)-2,2-difluorocyclopropane-1-carboxamide] are under 10 nM and under 10 nM.
The like results for `Cc1cc(Nc2ncc(C)c(N3CC(CC#N)(NS(C)(=O)=O)C3)n2)sn1` [E291, N-(3-(cyanomethyl)-1-(5-methyl-2-((3-methylisothiazol-5-yl)amino)pyrimidin-4-yl)azetidin-3-yl)methanesulfonamide] were, in that order, under 10 nM and under 20 nM.
The corresponding values for `Cc1cc(N(c2ncc(C)c(N3CC(CC#N)(NS(C)(=O)=O)C3)n2)S(C)(=O)=O)sn1` [E292] are under 1000 nM and under 5000 nM.
`Cc1cc(Nc2ncc(C)c(N3CC(CC#N)(NC(=O)NCC(F)(F)F)C3)n2)sn1` [E293, 1-(3-(cyanomethyl)-1-(5-methyl-2-((3-methylisothiazol-5-yl)amino)pyrimidin-4-yl)azetidin-3-yl)-3-(2,2,2-trifluoroethyl)urea]: the IC50 in assay [1] and in assay [2] was under 20 nM in each case.
As to `Cc1cc(Nc2ncc(C)c(N3CC(CC#N)(NCc4ccc(F)cc4F)C3)n2)sn1` [E295, 2-(3-((2,4-difluorobenzyl)amino)-1-(5-methyl-2-((3-methylisothiazol-5-yl)amino)pyrimidin-4-yl)azetidin-3-yl)acetonitrile], the IC50 in assay [1] is under 10 nM; in assay [2], under 20 nM.
`Cc1cc(Nc2ncc(C)c(N3CC(CC#N)(NC(=O)c4ccccn4)C3)n2)sn1` [E296]: the IC50 in assay [1] and in assay [2] was under 20 nM throughout.
Regarding `Cc1cc(Nc2ncc(C)c(N3CC(CC#N)(NC(=O)C4CCCC4)C3)n2)sn1` [E297], the IC50 in assay [1] is under 20 nM; in assay [2], under 50 nM.
For `Cc1cc(Nc2ncc(C)c(N3CC(CC#N)(NC(=O)c4ccncc4)C3)n2)sn1` [E298], the IC50 in assay [1] and in assay [2] was under 50 nM each time.
Regarding `Cc1cc(Nc2ncc(C)c(N3CC(CC#N)(NC(=O)Cc4ccccc4F)C3)n2)sn1` [E300], the IC50 in assay [1] and in assay [2] was under 20 nM throughout.
With `CCS(=O)(=O)NC1(CC#N)CN(c2nc(Nc3cc(C)ns3)ncc2C)C1` [E301], the IC50 in assay [1] was under 20 nM; in assay [2], under 50 nM.
The corresponding values for `CCS(=O)(=O)NC1(CC#N)CN(c2nc(N(c3cc(C)ns3)S(=O)(=O)CC)ncc2C)C1` [E302] are under 1000 nM and under 5000 nM.
The like results for `Cc1cc(Nc2ncc(C)c(N3CC(CC#N)(NC(=O)c4cccnc4)C3)n2)sn1` [E303] were, in that order, under 30 nM and under 20 nM.
Regarding `Cc1cc(Nc2ncc(C)c(N3CC(CC#N)(NC(=O)c4cccc(F)c4)C3)n2)sn1` [E304], the IC50 in assay [1] and in assay [2] was under 10 nM in each case.
As for `Cc1cnc(Nc2cnn(C)c2)nc1N1CC(CC#N)(N[C@H]2CC[C@H](NC(=O)OC(C)(C)C)C2)C1` [E305], the IC50 in assay [1] is over 2000 nM; in assay [2], over 1500 nM.
The corresponding values for `Cc1cnc(Nc2cnn(C)c2)nc1N1CC(CC#N)(N[C@H]2CC[C@H](NS(C)(=O)=O)C2)C1` [E306] are under 60 nM and under 120 nM.
The like results for `Cc1cnc(Nc2cnn(C)c2)nc1N1CC(C)(NC(=O)c2cccc(F)c2)C1` [E307] were, in that order, under 100 nM and under 20 nM.
The corresponding values for `Cc1cnc(Nc2ccc(CN(C)C)cc2)nc1N1CC(C)(NC(=O)c2cccc(F)c2)C1` [E308] are under 50 nM and under 100 nM.
On to `Cc1cc(Nc2ncc(C)c(N3CC(C)(NC(=O)c4cccc(F)c4)C3)n2)sn1` [E309], for which the IC50 in assay [1] was under 20 nM; in assay [2] it was under 10 nM.
Consider `Cc1cnc(Nc2cccc(CN(C)C)c2)nc1N1CC(C)(NC(=O)c2cccc(F)c2)C1` [E310], for which the IC50 was under 50 nM in assay [1] and under 20 nM in assay [2].
The like results for `Cc1cnc(Nc2ccc(N3CCOCC3)cc2)nc1N1CC(C)(NC(=O)c2cccc(F)c2)C1` [E311] were, in that order, under 50 nM and under 50 nM.
As for `Cc1cc(Nc2ncc(C)c(N3CC(CC#N)(NC(=O)c4cccc(F)c4F)C3)n2)sn1` [E312], the half-maximal inhibitory concentration (IC50) in assay [1] and in assay [2] was under 10 nM in each case.
Take `Cc1cc(Nc2ncc(C)c(N3CC(CC#N)(NC(=O)c4ccc(F)c(F)c4)C3)n2)sn1` [E313]: the IC50 in assay [1] was under 50 nM; in assay [2] it was under 20 nM.
The corresponding values for `Cc1cc(Nc2ncc(C)c(N3CC(CC#N)(NC(=O)c4cccc(Cl)c4)C3)n2)sn1` [E314] are under 10 nM and under 10 nM.
